Where two headings read alike, the source gives them in different places. Where a SMILES comes first, the peptide text is derived from it. [ ]: non-standard residue; d: D form. The star is where a group is joined. X1 = O=C(O)c1cc(NC(=S)*)ccc1C1c2ccc(O)cc2Oc2cc(O)ccc21; 2Nal = N[C@@H](Cc1ccc2ccccc2c1)C(=O)O; Bta = N[C@@H](Cc1csc2ccccc12)C(=O)O; Pen = CC(C)(S)[C@H](N)C(=O)O; Tle = CC(C)(C)[C@H](N)C(=O)O; Pip = O=C(O)[C@@H]1CCCCN1; AEEA = NCCOCCOCC(=O)O
Assays:
NHERF1-PDZ1 (N1P1) = target: T1, NHERF1-PDZ1 (N1P1) (Homo sapiens, UniProt O14745); experiment: Direct fluorescence polarization binding of FITC-labeled peptide
T1 sequence (O14745 14-94 limits assumed): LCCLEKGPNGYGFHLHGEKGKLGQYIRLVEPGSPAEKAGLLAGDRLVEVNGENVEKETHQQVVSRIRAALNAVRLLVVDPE
Experimental: (§1) Binding Affinity and Selectivity. The potency and selectivity of inhibitor 29 was first assessed by comparing its binding affinity to the four PDZ domains of CAL, NHERF1, and NHERF2, which are involved in the trafficking of CFTR to and from the plasma membrane. Peptides were labeled with FITC at the N-terminus through a miniPEG linker and tested for binding to various PDZ domains by fluorescence polarization (FP). FITC-labeled peptide (50 nM) was incubated with varying concentrations of PDZ domain in PBS (pH 7.4) containing 0.01% Triton X-100 and 2 mM TCEP for 1 h at room temperature. After 1 h, 20 μL of each sample was pipetted into 384-well black-on-black microplates and fluorescence polarization was measured by using a TECAN Infinite M1000 plate reader. Data was processed using GraphPad PRISM ver. 8.0.

NHERF2-PDZ2 (N2P2) = target: T2, NHERF2-PDZ2 (N2P2) (Homo sapiens, UniProt Q15599); experiment: as above; details: 50 nM FITC-labeled peptide, FP
T2 construct: PDZ1 (N2P1), and NHERF2-PDZ2 domains (N2P2)
Experimental: as §1

NHERF2-PDZ1 (N2P1) = target: T3, NHERF2-PDZ1 (N2P1) (Homo sapiens, UniProt Q15599); experiment: as above; details: 50 nM FITC-labeled peptide, FP
T3 construct: PDZ1 (N2P1), and NHERF2-PDZ2 domains (N2P2)
Experimental: as §1

[1] = target: T4, CAL PDZ domain (CALP5-His) (Homo sapiens, UniProt Q9HD26); experiment: FP-based competition assay, Condition B (probe FAM-[…]-OH); assay type: binding; details: for IC50: 500 nM CALP5-His, 5 mM DTT
T4 construct: His
Experimental: Serial dilutions of each competitor peptide were prepared in PBS and the incubation solution was added to each. The combined solutions were gently mixed for 1 h at RT after which 20 uL sample was pipetted into 384-well black-on-black microplates and fluorescence polarization was measured using a TECAN Infinite M1000 plate reader. Data was processed to determine IC50 using GraphPad PRISM ver. 6.0.

[2] = target: T4, CAL PDZ domain (CALP5-His); experiment: Direct fluorescence polarization binding of labeled peptide, Condition C
Experimental: Condition C (denoted with superscript ^C): 50 nM labeled peptide was incubated with 2 mM TCEP in PBS at pH 7.4 containing 0.01% Triton-X100. CALP5-His was serially diluted in PBS containing 0.01% Triton-X100 to which was then added the peptide and TCEP solution. This solution was mixed for 1 h at RT then 20 uL was pipetted into 384-well microplates and fluorescence polarization was measured using a TECAN Infinite M1000 plate reader. KD values were calculated using KaleidaGraph v. 3.6 using the equation: […]
as §1

HeLa cells [3] = experiment: Cellular uptake efficiency by flow cytometry; assay type: cell-based; details: for Uptake (% rel.): HeLa cells, 5 μM, 2 h, relative to CPP9 (100%)
Experimental: (§2) Cellular Uptake Efficiency: HeLa cells were seeded into 12-well cell-culture treated plates at a final density of 15×10^4 cells/well in DMEM supplemented with 10% FBS and 1% penicillin/streptomycin and incubated overnight at 37° ° C. and 5% CO2. After 24 h, the media was aspirated followed by washing the cells three times with warm DPBS. Peptides were diluted to a final concentration of 5 μM in DMEM containing 10% FBS with 1% penicillin/streptomycin, added to each well and then incubated for 2 h at 37° C. and 5% CO2. After 2 h, treatment media was aspirated and the cells were washed three times with ice-cold DPBS. Cells were removed from the plate via treatment with trypsin/EDTA and then harvested in ice-cold DPBS followed by centrifugation at ×300 RCF, 4° C. for 5 min. Cells were resuspended in DPBS and quantified using a BD Biosciences LSR II flow cytometer and gated using FlowJo. Values for uptake are provided as a percentage relative to positive control, CPP9 ([cyclo-fΦRrRrQ]-miniPEG-K[NF]).
as §2, with “Cellular Uptake. HeLa cells” for “Cellular Uptake Efficiency: HeLa cells”, “at 37° C. and” for “at 37° ° C. and”, “37° C. with 5% CO2.” for “37° C. and 5% CO2.”, “centrifugation at 300 g, 4° C.” for “centrifugation at ×300 RCF, 4° C.”, “control, CPP9 ([cyclo-fΦRrRrQ]-miniPEG-K[NF]), which has a 62% cytosolic entry efficiency. PGD97 entered HeLa cells at 60% efficiency relative to CPP9, corresponding to an absolute cytosolic entry efficiency of ˜36% (FIG. 9).” for “control, CPP9 ([cyclo-fΦRrRrQ]-miniPEG-K[NF]).”

[4] = Preliminary tests of cellular activity; assay type: cell-based; details: 50 nM concentration
HCT116 cell spheroids = experiment: Intracellular stability by MALDI imaging; assay type: in vitro ADME; details: after 4 or 24 h incubation with PGD97
Experimental: Intracellular Stability. PGD97 ([…]) was added to HCT116 cell spheroids in RPMI-1640 medium supplemented with 10% FBS and 1% penicillin/streptomycin and incubated for 4 or 24 h. After incubation, spheroids were washed 3× with DPBS, quickly frozen, embedded in a solid support, and cryo-sectioned. Prior to analysis, sinapinic acid was sublimed onto individual slides. The sample was imaged using a Bruker ultrafleXtreme MALDI-TOF-TOF and analyzed for the presence of proteolytic degradation fragments. Heatmaps, scaled relative to the most intense signal, were generated for the intact peptide (both 29 and 32) as well as ˜20 potential proteolytic fragments at each time point. […] A degradation fragment (#1) corresponding to proteolytic cleavage between Thr and Arg (FIG. 8B) was observed, but none of the other potential degradation products were observed. […] Most importantly, significant concentrations of intact peptide 29 was still present inside the cells after 24 h.

LC3-II = experiment: Autophagy in macrophages, western blotting for LC3-II; assay type: cell-based, human; details: 10 μM, ΔF508 CFTR macrophages
Experimental: Effect on Autophagy in Macrophage. Human primary ΔF508 CFTR macrophages were incubated with 10 μM VX809 (n=1) or 100 nM PGD97 (n=2) for 48 h in complete growth medium supplemented with 10% FBS and 1% penicillin/streptomycin at 37° C. Induction of autophagy was determined via western blotting for autophagy-associated protein LC3-II.

[5] = HCT116 cell spheroids in RPMI-1640 medium supplemented with 10% FBS and 1% penicillin/streptomycin; details: up to 24 h
HeLa cells [6] = details: positive control value; cited from earlier work
[7] = 50 nM FITC-labeled peptide, FP, read-out: KD (nM) N1P1
[8] = Condition B (superscript b): 100 nM probe FAM-[…]-OH
[9] = 50 nM FITC-labeled peptide, FP, read-out: KD (nM) CALP
[10] = Condition B (superscript b): 100 nM probe FAM-ANSRWPTSII-OH
[11] = FITC-labeled peptide, FP, read-out: Affinity (KD)

T3 sequence (Q15599 11-90 limits assumed): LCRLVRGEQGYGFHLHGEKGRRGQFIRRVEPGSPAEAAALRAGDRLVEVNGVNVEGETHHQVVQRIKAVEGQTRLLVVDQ
T2 sequence (Q15599 150-230 limits assumed): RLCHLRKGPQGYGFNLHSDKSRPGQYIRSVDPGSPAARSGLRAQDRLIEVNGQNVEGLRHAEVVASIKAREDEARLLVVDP

Molecule: CC(=O)N[C@@H](CS)C(=O)N[C@H](CCCNC(=N)N)C(=O)N[C@@H](CCCNC(=N)N)C(=O)N[C@@H](CCCNC(=N)N)C(=O)N[C@@H](Cc1ccc2ccccc2c1)C(=O)N[C@@H](Cc1c[nH]c2ccccc12)C(=O)N[C@@H](CCC(N)=O)C(=O)N[C@H](C(=O)N[C@H](C(=O)N[C@@H](CCCNC(=N)N)C(=O)N[C@H](C(=O)O)C(C)(C)C)[C@@H](C)O)C(C)(C)S [Compound 20, Ac-Cys-(D-Arg)-Arg-Arg-(2-Nal)-Trp-Gln-Pen-Thr-Arg-Tle-OH] (Ac-C[dR]RR[2Nal]WQ[Pen]TR[Tle]-OH)
- Kd (NHERF1-PDZ1 (N1P1); [7]): 1640 ± 150 nM
- Kd (NHERF2-PDZ2 (N2P2)): 4970 ± 890 nM
- Kd (NHERF2-PDZ1 (N2P1)): 2980 ± 150 nM
- IC50 [1, 8]: 165 nM
- Kd [2, 9]: 110 nM
- Kd ([2]; FITC-labeled peptide 20, FP, read-out: KD for CAL PDZ domain (FIG. 3A)): ~50 nM
- Uptake (% rel.) (HeLa cells [3]): 28 ± 1%

Molecule: CC(=O)N[C@@H](CS)C(=O)N[C@H](CCCNC(=N)N)C(=O)N[C@H](CCCNC(=N)N)C(=O)N[C@@H](CCCNC(=N)N)C(=O)N[C@@H](Cc1ccc2ccccc2c1)C(=O)N[C@@H](Cc1c[nH]c2ccccc12)C(=O)N[C@@H](CCC(N)=O)C(=O)N[C@H](C(=O)N[C@H](C(=O)N[C@@H](CCCNC(=N)N)C(=O)N[C@H](C(=O)O)C(C)(C)C)[C@@H](C)O)C(C)(C)S [Compound 21, Ac-Cys-(D-Arg)-(D-Arg)-Arg-(2-Nal)-Trp-Gln-Pen-Thr-Arg-Tle-OH] (Ac-C[dR][dR]R[2Nal]WQ[Pen]TR[Tle]-OH)
- IC50 [1, 10]: 270 nM
- Uptake (% rel.) (HeLa cells [3]): 23 ± 4%

Molecule: CC(=O)N[C@@H](CS)C(=O)N[C@H](CCCNC(=N)N)C(=O)N[C@@H](CCCNC(=N)N)C(=O)N[C@@H](CCCNC(=N)N)C(=O)N[C@@H](Cc1ccc2ccccc2c1)C(=O)N[C@@H](Cc1c[nH]c2ccccc12)C(=O)N[C@H](C(=O)N[C@H](C(=O)N[C@H](C(=O)N[C@@H](CCCNC(=N)N)C(=O)N[C@H](C(=O)O)C(C)(C)C)[C@@H](C)O)C(C)(C)C)C(C)(C)S [Compound 24, Ac-Cys-(D-Arg)-Arg-Arg-(2-Nal)-Trp-Pen-Tle-Thr-Arg-Tle-OH] (Ac-C[dR]RR[2Nal]W[Pen][Tle]TR[Tle]-OH)
- IC50 [1, 10]: 380 nM
- decrease of CAL binding ([1]; relative to peptide 22): ~2 fold
- Uptake (% rel.) (HeLa cells [3]): 92%
- cell-permeability, fold higher (HeLa cells [3]; relative to peptide 22): 4 fold

Molecule: CC(=O)N[C@@H](CS)C(=O)N[C@H](CCCNC(=N)N)C(=O)N[C@@H](CCCNC(=N)N)C(=O)N[C@@H](CCCNC(=N)N)C(=O)N[C@@H](Cc1ccc2ccccc2c1)C(=O)N[C@@H](Cc1csc2ccccc12)C(=O)N[C@H](C(=O)N[C@H](C(=O)N[C@H](C(=O)N[C@@H](CCCNC(=N)N)C(=O)N[C@H](C(=O)O)C(C)(C)C)[C@@H](C)O)C(C)(C)C)C(C)(C)S [Compound 25, Ac-Cys-(D-Arg)-Arg-Arg-(2-Nal)-(Bta)-Pen-Tle-Thr-Arg-Tle-OH] (Ac-C[dR]RR[2Nal][Bta][Pen][Tle]TR[Tle]-OH)
- cellular activity [4]: robust cellular activity
- IC50 [1, 8]: 235 nM
- potency in CAL binding, fold more potent ([1]; relative to peptide 24): 1.5 fold
- improvement in cell-permeability (HeLa cells [3]; Bta for Trp at P-5, relative to peptide 24): > 5 fold
- Uptake (% rel.) (HeLa cells [3]): 518 ± 74%
- cell-permeability, fold better (HeLa cells [3]; relative to CPP9): 5 fold
- cell-permeability, fold better (HeLa cells [3]; relative to peptide 20): ~20 fold

Molecule: CC(=O)N[C@@H](CS)C(=O)N[C@H](CCCNC(=N)N)C(=O)N[C@@H](CCCNC(=N)N)C(=O)N[C@@H](CCCNC(=N)N)C(=O)N[C@@H](Cc1ccc2ccccc2c1)C(=O)N[C@@H](Cc1csc2ccccc12)C(=O)N1CCCC[C@H]1C(=O)N[C@H](C(=O)N[C@H](C(=O)N[C@@H](CCCNC(=N)N)C(=O)N[C@H](C(=O)O)C(C)(C)C)[C@@H](C)O)C(C)(C)S [Compound 29, Ac-Cys-(D-Arg)-Arg-Arg-Nal-Bta-Pip-Pen-Thr-Arg-Tle-OH] (Ac-C[dR]RR[2Nal][Bta][Pip][Pen]TR[Tle]-OH)
- Kd (NHERF1-PDZ1 (N1P1); range over N1P1, N2P1 and N2P2, read-out: KD values for NHERF1/2 PDZ domains): 780 to 7480 nM
- presence of intact peptide in spheroids (HCT116 cell spheroids): High concentrations
- Kd [2, 9]: 6 ± 3 nM
- Kd [2, 11]: 6 nM
- improvement of CAL PDZ-binding affinity ([2]; Pip for Pro): ~15 fold
- selectivity for CAL vs NHERF PDZ domains ([2]; ratio of KD values, NHERF1/2 PDZ domains vs CAL PDZ): ≥ 130 fold

Molecule: C[C@@H](O)[C@H](NC(=O)[C@@H](NC(=O)[C@@H]1CCCCN1C(=O)[C@H](Cc1csc2ccccc12)NC(=O)[C@H](Cc1ccc2ccccc2c1)NC(=O)[C@H](CCCNC(=N)N)NC(=O)[C@H](CCCNC(=N)N)NC(=O)[C@@H](CCCNC(=N)N)NC(=O)[C@H](CS)NC(=O)COCCOCCNC(=S)Nc1ccc(C2c3ccc(O)cc3Oc3cc(O)ccc32)c(C(=O)O)c1)C(C)(C)S)C(=O)N[C@@H](CCCNC(=N)N)C(=O)N[C@H](C(=O)O)C(C)(C)C [Compound 29-FITC, FITC-miniPEG-Cys-(D-Arg)-Arg-Arg-Nal-Bta-Pip-Pen-Thr-Arg-Tle-OH] ({X1-AEEA}-C[dR]RR[2Nal][Bta][Pip][Pen]TR[Tle]-OH)
- Kd (NHERF1-PDZ1 (N1P1); [7]): 780 ± 10 nM
- Kd (NHERF2-PDZ2 (N2P2)): 7480 ± 580 nM
- Kd (NHERF2-PDZ1 (N2P1)): 1370 ± 380 nM
- Kd [2, 9]: 6 ± 3 nM
- Kd [2, 11]: 6 ± 3 nM

Molecule: CC(C)(CO)c1cc2cc(NC(=O)C3(c4ccc5c(c4)OC(F)(F)O5)CC3)c(F)cc2n1C[C@@H](O)CO [VX661, Tezacaftor, reference compound]
- LC3-II protein levels (LC3-II): also effective

Molecule: Ac-Cys-(D-Arg)-Arg-Arg-Nal-Bta-Pip-Pen-Thr-Arg-Tle-OH
- cleaved bond [5]: Thr-Arg

Molecule: [cyclo-fΦRrRrQ]-miniPEG-K[NF] [CPP9]
- cytosolic entry efficiency (HeLa cells [6]): 62%
